# Marks after values point to notes of the source that are not given here.
# Assays:
# [1] = tested on: C. neoformans; test: MIC testing in the presence of 10% serum; assay type: cell-based
# Experimental: (§1) MICs were determined using Clinical and Laboratory Standards Institute guidelines ([48], [49]). All yeasts were cultured overnight in 3 mL YPD at 30°C, then washed twice in sterile phosphate-buffered saline (PBS). Twofold serial dilutions of each drug were prepared in RMPI + MOPS, then 1 × 10^3 cells were added per well. For mold species, wells were inoculated with 1.25 × 10^3 conidia per well. Plates were incubated at 37°C for 24 (Candida spp. and S. cerevisiae), 48 (Aspergillus spp., M. circinelloides, S. apiospermum, and L. prolificans), or 72 (C. neoformans and F. oxysporum) hours. S. cerevisiae BY4743 MICs were tested in YPD due to nutritional requirements of this strain. Each assay was performed in technical duplicate in at least two independent experiments performed on different days.
# [2] = tested on: A. fumigatus; test: MIC testing (CLSI broth dilution); assay type: cell-based; conditions: Aspergillus fumigatus
# Experimental: as §1
# [3] = tested on: L. prolificans; test: MIC testing (CLSI broth dilution); assay type: cell-based; conditions: Lomentospora prolificans; strain 90853; CLSI conditions
# Experimental: as §1
# [4] = tested on: M. circinelloides; test: MIC testing (CLSI broth dilution); assay type: cell-based; conditions: Mucor circinelloides; strain CBS277.49; CLSI conditions
# Experimental: as §1
# [5] = tested on: C. neoformans; test: MIC testing (CLSI broth dilution); assay type: cell-based; conditions: Cryptococcus neoformans
# Experimental: as §1
# [6] = tested on: S. apiospermum; test: MIC testing (CLSI broth dilution); assay type: cell-based; conditions: Scedosporium apiospermum; strain MYA3635 (lab reference strain); CLSI conditions
# Experimental: as §1
# [7] = tested on: A. niger; test: MIC testing (CLSI broth dilution); assay type: cell-based, Aspergillus niger; conditions: strain S007, clinical isolate; no clear well, growth reduced by ≥50% at MEC
# Experimental: as §1
# [8] = tested on: A. fumigatus; test: MIC testing in the presence of 10% serum; assay type: cell-based, Aspergillus fumigatus
# Experimental: as §1
# [9] = tested on: HeLa cells; test: Cytotoxicity by LDH release; assay type: cell-based, human; conditions: 24 hours
# Experimental: (§2) HepG2 [American Type Culture Collection (ATCC), HB-8065], HeLa (ATCC, CCL-2), and A549 (ATCC, CCL-185) cells were maintained and cultured in Dulbecco’s modified Eagle medium (Gibco, Cat # 11965–092) with 10% FBS and 1% penicillin/streptomycin at 37°C with 5% CO2. Cells were seeded in 96-well plates at a density of 1.25 × 10^4 cells/well and incubated overnight at 37°C with 5% CO2; then, media were removed and replaced with media containing a twofold drug dilution series with equal DMSO across all wells. Cells were incubated for an additional 24 hours, then the supernatant was removed and used to quantify lactate dehydrogenase release using the CyQuant LDH assay kit (Invitrogen, Cat # C20300) following the manufacturers’ directions. LDH was normalized to a maximum lysis control treated with Triton-X. HeLa and A549 cells were purchased in 2023, and the cells used for these studies were directly from fresh vials. HepG2 cells for these studies were used from a fresh, low passage (P3) vial saved directly from purchased stocks.
# [10] = tested on: A549 cells; test: Cytotoxicity by LDH release; assay type: cell-based, human; conditions: A549, 24 hours
# Experimental: as §2
# [11] = tested on: HepG2 cells; test: Cytotoxicity by LDH release; assay type: cell-based, human; conditions: HepG2, 24 hours
# Experimental: as §2
# [12] = tested on: A. fumigatus collagenase secretion; test: Detection of secreted collagenase by azocoll; assay type: cell-based, Aspergillus fumigatus
# Experimental: 1 × 10^6 CEA10 conidia/mL were cultured in 25 mL liquid GMM for 18 hours, then mycelia were washed with sterile ddH2O and transferred to 10% FBS-MM and treated with DMSO or the indicated concentration of drugs. Cultures were incubated at 37°C, 250 rpm, for an additional 24 hours, then the supernatant and biomass were collected. One milliliter of supernatant was spun at top speed for 5 min. Azocoll of <50 mesh (Sigma, Cat # 194932) was washed in buffer (50 mM Tris, pH 7.5, 1 mM NaCl, and 0.01% sodium azide) then resuspended to 5 mg/mL. Fifteen microliters of culture supernatant was added to the 2 mL azocoll solution and incubated at 37°C with shaking at 300 rpm for 3 hours in the dark. Reactions were spun at maximum speed for 3 min; 200 µL of supernatant was then transferred to a 96-well plate; and Abs 520 was measured. Biomass was lyophilized, and absorbance readings were normalized to milligram tissue. Data represent the mean and SEM of biological triplicates with technical duplicates except for compounds 5 and 7, which are biological duplicates due to the limited availability of the drug and the required culture size for this assay.
# [13] = tested on: sheep red blood cells; test: Hemolysis assay; assay type: cell-based; conditions: 2 hours at RT
# Experimental: Hemolysis assays were performed with defibrinated sheep’s blood (Lampire, Cat # 7239001). Blood was washed three times with PBS then resuspended to ~50% hematocrit in PBS. Drugs were diluted to generate a twofold dilution series in 200 µL PBS with equal DMSO concentration across the series, then red blood cells were added for a final concentration of 2% hematocrit. Cells were incubated at RT for 2 hours in a v-bottom microtiter plate; then, plates were spun down; and the supernatant was transferred to a flat-bottomed microtiter plate for absorbance measurement at 570 nm. Drugs were tested in technical triplicate in at least two independent assays performed on different lots of blood.
# [14] = tested on: A. fumigatus CEA10; test: ER stress interactions on GMM plates; assay type: cell-based, Aspergillus fumigatus; conditions: 1 µg/mL 1 on GMM
# Experimental: For Aspergillus fumigatus, 5 µL of 1 × 10^4 CEA10 conidia was spotted at the center of GMM plates containing DMSO or 1 µg/mL 1 in combination with DTT, brefeldin A, or tunicamycin. Plates were incubated at 37°C for 72 hours. Representative images of two independent experiments with three biological replicates each were obtained. For Ire1 strains, the cells were prepared as described above but were incubated at 30°C.
# [15] = tested on: C. auris; test: MIC testing (CLSI broth dilution); assay type: cell-based, Candida auris; conditions: Candidozyma auris, CLSI conditions
# Experimental: as §1
smiles,measurement,setting,value
OC1CC(c2cc(N3CCC(CCc4ccccc4)CC3)ncn2)C1 (stereo not shown) [compound 1],increase in MIC in the presence of 10% serum,[1],2 fold
same,MIC,"[2]; 48 h, strain CEA10, CLSI conditions, 48 h, read-out: MIC",16 µg/mL
same,MIC,"[2]; ATCC13073, strain ATCC13073, CLSI conditions, read-out: MIC",8 µg/mL
same,MIC,"[2]; strain AF293, CLSI conditions, read-out: MIC",16 µg/mL
same,MIC,"[2]; strain S001, clinical isolate, CLSI conditions, read-out: MIC",8 µg/mL
same,MIC,"[2]; strain S003, clinical isolate, CLSI conditions, read-out: MIC",4 µg/mL
same,MIC,"[2]; strain SPF93 (voriconazole-susceptible parent), CLSI conditions, read-out: MIC",8 µg/mL
same,MIC,"[2]; strain SPF98, drug-resistant isolate (cyp51A TR34 L98H), CLSI conditions",8 µg/mL
same,MIC,"[2]; A. fumigatus reference strains and clinical isolates, read-out: MIC",8 to 16 µg/mL
same,MIC,[3],8 µg/mL
same,MIC,[4],16 µg/mL
same,MIC,"[5]; 72 h, strain H99, CLSI conditions",1 µg/mL
same,MIC,"[5]; strain DUMC118, clinical isolate, CLSI conditions",2 µg/mL
same,MIC,"[5]; strain DUMC138, clinical isolate, CLSI conditions",1 µg/mL
same,MIC,"[5]; strain JEC21, CLSI conditions",2 µg/mL
same,MIC,[5]; strain not named,2 µg/mL
same,MIC,[6],2 µg/mL
same,Minimum effective concentration (MEC),[7],16^b µg/mL
same,increase in MIC in the presence of 10% serum,[8]; A. fumigatus,2 fold
same,MIC,"[8]; Aspergillus fumigatus, read-out: MIC w/serum",32 µg/mL
same,LD50 (LDH release),[9],146 µg/mL
same,LD50 (LDH release),[10],198 µg/mL
same,LD50 (LDH release),[11],111 µg/mL
same,collagenase secretion,"[12]; 1 µg/mL, 24 hours in 10% FBS-MM",did not change collagenase secretion
same,collagenase secretion,"[12]; 2, 4, 8 and 16 µg/mL, 24 hours in 10% FBS-MM, dose-dependent",significantly inhibited
same,collagenase secretion,[12]; treated with 1/2 MIC of each compound,inhibition of collagenase secretion was similar
same,LD50 (hemolysis),[13]; 2% hematocrit,350 µg/mL
same,hemolysis of red blood cells,[13]; up to 128 µg/mL,did not observe hemolysis
same,interaction with DTT,"[14]; 37°C, 72 hours",synergistic
same,interaction with brefeldin A,"[14]; 37°C, 72 hours",modest antagonism
same,interaction with tunicamycin,[14]; 10 µg/mL tunicamycin,slight antagonism
same,interaction with tunicamycin,[14]; 50 µg/mL tunicamycin,no interaction
same,MIC,[15]; strain 0390,> 128 µg/mL
same,MIC,"[15]; strain 3081, drug-resistant clinical isolate",8 µg/mL

# Reference: publication PMC11302339, “A series of pyrimidine-based antifungals with anti-mold activity disrupt ER function in Aspergillus fumigatus” (Microbiology Spectrum, 2024)
